Laboratory results from patent publication US20100292205A1, “Pyrimidone Compounds As GSK-3 Inhibitors” (PFIZER INC., priority 2006, published 2010).

target: T1, Recombinant human GSK3β (Homo sapiens, UniProt P49841); assay: GSK-3β (Glycogen Synthase Kinase) cell free enzyme assay; type: biochemical; conditions: cell free enzyme assay; Examples 62-155
T1 construct: His-tag; made in house; host or cells: Sf9 insect cells / baculovirus
Outline: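 This cell-free kinase assay measured [33P] transfer from [33P]ATP gamma phosphate into the biotinylated peptide bio-LC-S-R-H-S-S-P-H-Q-pS-E-D-E-E-E-OH. After 60 min at RT, reactions were stopped with 0.66 volume of PBS lacking Ca or Mg containing 12.5 mM EDTA, 0.25% Triton-X 100, 125 uM ATP and 6.2 mg/ml streptavidin SPA beads. Bead-bound radioactivity was counted as CPM on a Trilux scintillation counter.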

T1 sequence (P49841 whole entry): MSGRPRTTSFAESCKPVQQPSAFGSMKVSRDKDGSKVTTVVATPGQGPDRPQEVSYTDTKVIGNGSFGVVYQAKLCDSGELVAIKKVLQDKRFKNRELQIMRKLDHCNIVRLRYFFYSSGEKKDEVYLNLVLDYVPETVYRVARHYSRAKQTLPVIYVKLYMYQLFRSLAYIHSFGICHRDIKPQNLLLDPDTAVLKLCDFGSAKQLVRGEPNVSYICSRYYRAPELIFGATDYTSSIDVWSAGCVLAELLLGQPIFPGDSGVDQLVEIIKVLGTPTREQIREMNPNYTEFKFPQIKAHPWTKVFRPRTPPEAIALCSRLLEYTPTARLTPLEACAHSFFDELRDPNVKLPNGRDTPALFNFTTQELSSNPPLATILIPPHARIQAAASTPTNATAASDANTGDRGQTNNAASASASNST

| SMILES | IC50 [nM] |
| --- | --- |
| CCC(CC)C(=O)N1C[C@@H]2[C@H](C1)[C@H]2N(C)c1nc(-c2ccncc2F)cc(=O)n1C [Example 127, 2-{[(1R,5S,6s)-3-(2-Ethylbutanoyl)-3-azabicyclo[3.1.0]hex-6-yl](methyl)amino}-6-(3-fluoropyridin-4-yl)-3-methylpyrimidin-4(3H)-one] | 4.41 |
| CCCCC(=O)N1C[C@@H]2[C@H](C1)[C@H]2N(C)c1nc(-c2ccncc2F)cc(=O)n1C [Example 128, 6-(3-Fluoropyridin-4-yl)-3-methyl-2-{methyl[(1R,5S,6s)-3-pentanoyl-3-azabicyclo[3.1.0]hex-6-yl]amino}pyrimidin-4(3H)-one] | 16.4 |
| COC(=O)CCC(=O)N1C[C@@H]2[C@H](C1)[C@H]2N(C)c1nc(-c2ccncc2F)cc(=O)n1C [Example 129, Methyl 4-[(1R,5S,6s)-6-{[4-(3-fluoropyridin-4-yl)-1-methyl-6-oxo-1,6-dihydropyrimidin-2-yl](methyl)amino}-3-azabicyclo[3.1.0]hex-3-yl]-4-oxobutanoate] | 84.4 |
| CN(c1nc(-c2ccncc2F)cc(=O)n1C)[C@H]1[C@@H]2CN(C(=O)c3cc(F)ccc3F)C[C@@H]21 [Example 130, 2-{[(1R,5S,6s)-3-(2,5-Difluorobenzoyl)-3-azabicyclo[3.1.0]hex-6-yl](methyl)amino}-6-(3-fluoropyridin-4-yl)-3-methylpyrimidin-4(3H)-one] | 1.69 |
| CN(c1nc(-c2ccncc2F)cc(=O)n1C)[C@H]1[C@@H]2CN(C(=O)CC(C)(C)C)C[C@@H]21 [Example 131, 2-{[(1R,5S,6s)-3-(3,3-Dimethylbutanoyl)-3-azabicyclo[3.1.0]hex-6-yl](methyl)amino}-6-(3-fluoropyridin-4-yl)-3-methylpyrimidin-4(3H)-one] | 1.57 |
| Cc1cccc(C(=O)N2C[C@@H]3[C@H](C2)[C@H]3N(C)c2nc(-c3ccncc3F)cc(=O)n2C)c1 [Example 132, 6-(3-Fluoropyridin-4-yl)-3-methyl-2-{methyl[(1R,5S,6s)-3-(3-methylbenzoyl)-3-azabicyclo[3.1.0]hex-6-yl]amino}pyrimidin-4(3H)-one] | 1.05 |
| Cc1ccc(C(=O)N2C[C@@H]3[C@H](C2)[C@H]3N(C)c2nc(-c3ccncc3F)cc(=O)n2C)cc1F [Example 133, 2-{[(1R,5S,6s)-3-(3-Fluoro-4-methylbenzoyl)-3-azabicyclo[3.1.0]hex-6-yl](methyl)amino}-6-(3-fluoropyridin-4-yl)-3-methylpyrimidin-4(3H)-one] | 2.91 |
| CN(c1nc(-c2ccncc2F)cc(=O)n1C)C1[C@H]2CN(C(=O)C34CC[C@@](C)(C(=O)O3)C4(C)C)C[C@@H]12 (stereo partly drawn) [Example 134, 6-(3-Fluoropyridin-4-yl)-3-methyl-2-{methyl[(1R,5S,6R)-3-{[(1S,4R)-4,7,7-trimethyl-3-oxo-2-oxabicyclo[2.2.1]hept-1-yl]carbonyl}-3-azabicyclo[3.1.0]hex-6-yl]amino}pyrimidin-4(3H)-one] | 65.7 |
| CCC(=O)N1C[C@@H]2[C@H](C1)[C@H]2N(C)c1nc(-c2ccncc2F)cc(=O)n1C [Example 135, 6-(3-Fluoropyridin-4-yl)-3-methyl-2-{methyl[(1R,5S,6s)-3-propionyl-3-azabicyclo[3.1.0]hex-6-yl]amino}pyrimidin-4(3H)-one] | 5.46 |
| CN(c1nc(-c2ccncc2F)cc(=O)n1C)[C@H]1[C@@H]2CN(C(=O)c3ccc(C#N)cc3)C[C@@H]21 [Example 136, 4-{[(1R,5S,6s)-6-{[4-(3-Fluoropyridin-4-yl)-1-methyl-6-oxo-1,6-dihydropyrimidin-2-yl](methyl)amino}-3-azabicyclo[3.1.0]hex-3-yl]carbonyl}benzonitrile] | 42.6 |
| CN(c1nc(-c2ccncc2F)cc(=O)n1C)[C@H]1[C@@H]2CN(C(=O)c3cccc(F)c3F)C[C@@H]21 [Example 137, 2-{[(1R,5S,6s)-3-(2,3-Difluorobenzoyl)-3-azabicyclo[3.1.0]hex-6-yl](methyl)amino}-6-(3-fluoropyridin-4-yl)-3-methylpyrimidin-4(3H)-one] | 3.29 |
